For one series, the system named is MDA-MB-468. The series can be described thus: MTT antiproliferation assay in MDA-MB-468 cells. The class given is cell-based. The following applies: Homo sapiens, concentration that limits growth by 50%, 72 hour incubation, mean ± SD, at least two experiments in duplicate. As to the method:
(§1) The newly synthesized selectively mono-N-acylated compounds of series 4 and series 7 were evaluated as potential anticancer agents because compound 1 had been previously shown to display anticancer activity by inhibiting DHFR (Kuyper L F et al, J Med Chem 39, 892-903 (1996); incorporated by reference herein). Compounds of series 2 were not evaluated due to their poor solubility in DMSO. Two triple negative breast cancer (TN BC) cell lines (MDA-MB-231 and MDAMB-468) were selected to evaluate potential anticancer activity of the compounds of series 4 and series 7 by an MTT assay (Li B X et al, Bioorg Med Chem 20, 6811-6820 (2012); incorporated by reference herein.) TNBC represents a unique subtype of breast cancer clinically characterized by the lack of expression of estrogen receptor (ER), progesterone receptor (PR) and human epidermal growth factor receptor 2 (HER2). Subjects with triple negative breast cancer often have a poor prognosis (Kang S P et al, Curr Opin Obstet Gynecol 20, 40-46 (2008) and The Cancer Genome Atlas Network Nature, 490, 61-70 (2012); both of which are incorporated by reference herein). Current treatment options for TNBC are limited and novel agents are needed (Shastry M and Yardley D A, Curr Opin Obstet Gynecol 25, 40-48 (2013); incorporated by reference herein).
(§2) GI50 values represent the concentration that limits the growth of the cancer cells by 50% during a 72 hour incubation period. These are presented as mean±standard deviation of the mean of at least two independent experiments performed in duplicate.
(§3) TMTT assays for MDA-MB-231, MDA-MB-468 and HMEC were performed as described in Li et al, 2012 supra.
(In general: Formazan colour is commonly taken as a measure of viable cells.)

In the next series the test system is MDA-MB-231. The series can be described thus: MTT antiproliferation assay in MDA-MB-231 cells. Conditions: Homo sapiens, concentration that limits growth by 50%, 72 hour incubation, mean ± SD, at least two experiments in duplicate. It counts as cell-based. As to the method:
as §1, §2, §3

Series [1] can be described thus: Stability in HPLC mobile phase containing TFA. It counts as physicochemical. The following applies: HPLC mobile phase water/acetonitrile with 0.1% TFA. As to the method: The solvents used for each reaction were purified from the Glass Contout solvent purification system. Melting points were determined in capillary tubes using MeI-Temp and are uncorrected. NMR spectra were recorded at 400 MHz (^1H NMR) and 100 MHz (^13C NMR). Chemical shifts (δ) are reported in ppm relative to the residual CHCl3 (1H, 7.26 ppm, 13C, 77.0 ppm) or DMSO (1H, 2.50 ppm, 13C, 39.5 ppm). The following abbreviations were used to describe the splitting pattern of individual peaks if applicable: s=singlet, d=doublet, t=triplet, q=quartet, m=multiplet. The coupling constants (J) were reported in Hertz (Hz). Silica gel flash chromatography was performed using 230-400 mesh silica gel (EMD). The mass spectra were obtained from an LTQ Orbitrap Discovery mass spectrometer (Thermo Scientific, West Palm Beach, Fla.) with electrospray operated either in positive or negative mode. All final compounds were confirmed to be of >95% purity based on HPLC (Waters) analysis using an XBridge C18 column (4.6×150 mm) and detected at 254 nm (due to the poor solubility, compound 2a-2d were not evaluated by HPLC). The mobile phases for HPLC are water and acetonitrile, both of which contain 0.1% TFA (for compounds 2e, 4e, and 7e which contain a TBS group, 0.01% TFA was used due to instability of these compounds in 0.1% TFA).

A further series can be described thus: Solubility observations. The class given is physicochemical. Conditions: high-quality 13C NMR spectra could not be obtained.
Series [2] has as its system normal human mammary epithelial cells (HMEC). The series can be described thus: MTT viability assay in normal human mammary epithelial cells. The class given is cell-based. Conditions: toxic at a concentration as low as. The protocol: FIG. 2 is a plot showing the effect of compound 7f on normal human mammary epithelial cells (HMEC.) HMEC were treated with the indicated concentrations of doxorubicin or 7f for 24 or 72 hours as indicated. Cells treated for 24 hours were further incubated in drug free media for 48 hours. The number of viable cells was determined by an MTT assay.
as §3

A word on the melting point: it is the temperature of the solid-liquid transition. For `CC(C)C(=O)n1ccc2c3c(N)nc(N)nc3ccc21` [Compound 2d], the melting point lay within 200 to 202 °C.
The GI50 is the concentration at which growth is held to half of that of the control. The compound `CCC(=O)Nc1nc(N)nc2ccc3[nH]ccc3c12` [Compound 4b] came in with a melting point of 226 to 228 °C. This compound came in with a GI50 with MDA-MB-468 of 20.3 ± 7.4 µM. In the series with MDA-MB-231, this compound yielded a GI50 of 18.7 ± 2.24 µM.
For the compound `Nc1nc(N)c2c(ccc3[nH]ccc32)n1` [Compound 1, 7H-Pyrrolo[3,2-f]quinazoline-1,3-diamine, reference compound], the GI50 turned out to be 3.34 ± 0.93 µM with MDA-MB-468 and 4.13 ± 0.54 µM in the series with MDA-MB-231.
The compound `CC(C)C(=O)Nc1nc(N)c2c(ccc3[nH]ccc32)n1` [Compound 7d] had a melting point of 288 to 290 °C. In the series on MDA-MB-468, this compound had a concentration for 50% growth inhibition (GI50) of 29.8 ± 8.41 µM. Besides, the 50% growth inhibitory concentration (GI50) in the series on MDA-MB-231 was determined as 39.7 ± 22.5 µM.
Turning to `Nc1nc(NC(=O)c2ccc3ccccc3c2)c2c(ccc3[nH]ccc32)n1` [Compound 4f], the GI50 is 8.91 ± 1.28 µM in the series on MDA-MB-468 and 8.46 ± 2.56 µM in the series on MDA-MB-231.
On to `CC(=O)Nc1nc(N)nc2ccc3[nH]ccc3c12` [Compound 4a], for which the melting point is 236 to 238 °C. The GI50 with MDA-MB-468 amounted to 56.5 ± 18 µM. Also, in the series on MDA-MB-231, the GI50 turned out to be 32.6 ± 14 µM.
Regarding `CC(C)C(=O)Nc1nc(N)nc2ccc3[nH]ccc3c12` [Compound 4d], the GI50 in the series with MDA-MB-468 and with MDA-MB-231 was more than 100 µM throughout.
`CC(C)(C)[Si](C)(C)OCCCCC(=O)Nc1nc(N)c2c(ccc3[nH]ccc32)n1` [Compound 7e] came in with a melting point of 140 to 142 °C. For the same compound, in series [1], the “stability in 0.1% TFA” value is recorded as “instability”. In the series with MDA-MB-468, this compound yielded a GI50 of 2.24 ± 0.4 µM. Besides, in the series on MDA-MB-231, the GI50 is 2.43 ± 0.13 µM.
Take `CCCC(=O)n1ccc2c3c(N)nc(N)nc3ccc21` [Compound 2c]: the melting point lay in the range of 196 to 198 °C. The “solubility (13C NMR sample)” value in the series “Solubility observations” was “so limited”.
In turn, `CCC(=O)n1ccc2c3c(N)nc(N)nc3ccc21` [Compound 2b] registered a melting point of 210 to 212 °C. Besides, the “solubility (13C NMR sample)” value in “Solubility observations” is “so limited”.
In turn, `CCCC(=O)Nc1nc(N)c2c(ccc3[nH]ccc32)n1` [Compound 7c] displayed a melting point of 262 to 264 °C. Further, growth in the series with MDA-MB-468 was halved (GI50) at 27.4 ± 4.52 µM. In the series on MDA-MB-231, this compound showed a concentration for 50% growth inhibition (GI50) of 25.5 ± 9.93 µM.
In the case of `CCCC(=O)Nc1nc(N)nc2ccc3[nH]ccc3c12` [Compound 4c], the melting point lay in the range of 224 to 226 °C. Also, the GI50 with MDA-MB-468 is 26.3 ± 7.4 µM. Moreover, in the series on MDA-MB-231, the 50% growth inhibitory concentration (GI50) was found to be 26.9 ± 12.9 µM.
Regarding `CCC(=O)Nc1nc(N)c2c(ccc3[nH]ccc32)n1` [Compound 7b], the melting point lay in the range of 228 to 230 °C. In the series with MDA-MB-468, this compound registered a GI50 of 24.4 ± 3.33 µM. Besides, in the series with MDA-MB-231, growth was halved (GI50) at 21.4 ± 9.86 µM.
As for `CC(C)(C)[Si](C)(C)OCCCCC(=O)Nc1nc(N)nc2ccc3[nH]ccc3c12` [Compound 4e], the melting point lay in the range of 172 to 174 °C. The “stability in 0.1% TFA” value in series [1] is given as “instability”. This compound returned a GI50 with MDA-MB-468 of 11.1 ± 1.73 µM. For the same compound, in the series on MDA-MB-231, the 50% growth inhibitory concentration (GI50) turned out to be 15.6 ± 7.66 µM.
`Nc1nc(N)c2c(ccc3c2ccn3C(=O)c2ccc3ccccc3c2)n1` [Compound 2f]: the melting point fell in the range of 188 to 190 °C.
`CC(=O)Nc1nc(N)c2c(ccc3[nH]ccc32)n1` [Compound 7a] showed a melting point of 260 to 262 °C. The compound further returned a GI50 in the series on MDA-MB-468 of 53.5 ± 29.5 µM. The compound also had a GI50 in the series on MDA-MB-231 of 27.2 ± 11.4 µM.
In the series with MDA-MB-468, `COc1cccc2c1C(=O)c1c(O)c3c(c(O)c1C2=O)C[C@@](O)(C(=O)CO)C[C@@H]3O[C@H]1C[C@H](N)[C@H](O)[C@H](C)O1` [Dox, doxorubicin, reference compound] displayed a GI50 of 0.12 µM. The “concentration toxic to normal HMEC cells” value in series [2] is not above 100 nM.
`CC(C)(C)[Si](C)(C)OCCCCC(=O)n1ccc2c3c(N)nc(N)nc3ccc21` [Compound 2e]: the melting point was 173 to 175 °C. The “stability in 0.1% TFA” value in series [1] was “instability”.
Consider `CC(=O)n1ccc2c3c(N)nc(N)nc3ccc21` [Compound 2a], for which the melting point lay within 202 to 204 °C. In addition, the “solubility (13C NMR sample)” value in “Solubility observations” is listed as “so limited”.
As to `CCCCOc1cc2ccccc2cc1C(=O)Nc1nc(N)c2c(ccc3[nH]ccc32)n1` [Compound 7g, N-(1-Amino-7H-pyrrolo[3,2-f]quinazolin-3-yl)-3-butoxy-2-naphthamide], the GI50 was 0.1 ± 0.079 µM in the series on MDA-MB-468 and 0.65 ± 0.43 µM in the series with MDA-MB-231.

The values are drawn from patent publication US9133203B2, “Pyrroloquinazoline compounds” (OREGON HEALTH & SCIENCE UNIVERSITY, priority 2013, dated 2015).
